According to patent US6357163B1, “Use of nucleic acid analogues in diagnostics and analytical procedures” (priority 1991, dated 2002):
Several values for one entry are separate records, joined by “and”; a condition that tells them apart may be missing. Identical values can stand only once.

Experiments:
5′-AAA-AAA-AAA-AAA-AAA = assay: Melting temperature (Tm) of hybrid with oligodeoxyribonucleotide; type: binding; details: oligo 14 (5′-AAA-AAA-AAA-AAA-AAA); 10 mM phosphate, 1 mM EDTA, 140 mM NaCl, pH 7.2
Source text: (§1) 2. Upon formation of DNA duplexes (dsDNA) from single strand DNA, the extinction coefficient decreases (hypochromicity). Thus, the denaturing of DNA can be followed by measuring changes in the absorbance, for example, as a function of […], the temperature where 50% of a duplex has disappeared to give single strands.
(§2) Duplexes were formed from the single-stranded oligodeoxyribonucleotides and the PNAs listed below. Typically 0.3 OD260 of the T-rich strand was hybridized with 1 equivalent of the other strand by heating to 90° C. for 5 min, cooling to room temperature and kept for 30 min and finally stored in a refrigerator at 5° C. for at least 30 min. The buffers used were all 10 mM in phosphate and 1 mM in EDTA. The low salt buffer contained no sodium chloride, whereas the medium salt buffer contained 140 mM NaCl and the high salt buffer 500 mM NaCl. The pH of all the buffers was 7.2. The melting temperature of the hybrids were determined on a Gilford Response apparatus. The following extinction coefficients were used A: 15.4 ml/μmol.cm; T: 8.8; G: 11.7 and C: 7.3 for both normal oligonucleotides and PNA. The melting curves were recorded in steps of 0.5 C/min. The Tm were determined from the maximum of the 1st derivative of the plot of A260 vs temperature.
14. 5′-AAA-AAA-AAA-AAA-AAA (See SEQ ID NO:20)

(dA)10 = assay: as above; type: binding; details: for Tm, Medium Salt / Tm, High Salt / Tm, Low Salt: oligo 2 (5′-AAA-AAA-AAA-A), 10 mM phosphate, 1 mM EDTA, pH 7.2; for Tm, Medium Salt: 140 mM NaCl; for Tm, High Salt: 500 mM NaCl; for Tm, Low Salt: no sodium chloride; for Tm: DNA (dA)10
Source text: as §1, §2

(dA)5(dG)(dA)4 = assay: as above; type: binding; details: oligo 4 (5′-AAA-AAG-AAA-A), 10 mM phosphate, 1 mM EDTA, pH 7.2; for Tm, Medium Salt: 140 mM NaCl; for Tm, High Salt: 500 mM NaCl; for Tm, Low Salt: no sodium chloride
Source text: as §1, §2

5′-AAA-AGA-AGA-A = assay: as above; type: binding; details: oligo 7 (5′-AAA-AGA-AGA-A); 10 mM phosphate, 1 mM EDTA, 140 mM NaCl, pH 7.2
Source text: as §1, §2
7. 5′-AAA-AGA-AGA-A (See SEQ ID NO:13)

5′-AAG-AAG-AAA-A = assay: as above; type: binding; details: oligo 5 (5′-AAG-AAG-AAA-A); 10 mM phosphate, 1 mM EDTA, 140 mM NaCl, pH 7.2
Source text: as §1, §2
5. 5′-AAG-AAG-AAA-A (See SEQ ID NO:9)

32P-end-labelled dT10 = assay: Gel retardation (PAGE), control experiment; type: binding; details: same conditions
Protocol: (§3) 1. As shown in Example 56 below PNA-oligonucleotide complexes will migrate slower than the single stranded oligonucleotide upon electrophoresis in polyacrylamide gels. Consequently, such experiments were performed with Acr^1-(Taeg)10-Lys-NH2 and ^32P-end-labelled dA10.
(§4) In FIG. 11a and in FIG. 11b, the 5′-^32P-labelled oligonucleotide 1 is 5′-GATCCA10G. This was incubated in the absence (lanes 1 and 4) or presence of Acr-T10-Lys-NH2 (in lanes 2 and 5, 25 pmol; lanes 3 and 6, 75 pmol) and also in the absence (lanes 1 to 3) or presence (lanes 4 to 6) of “oligo-2” which was 5′-GATCCT10G. 5′-^32P-labelled oligo 2 was incubated in the absence (lane 7) or presence of the same PNA (lane 8, 25 pmol; lane 9, 75 pmol) and analysed by PAGE as described above in detail.
The results in FIG. 11a show retardation of the ssDNA as it is hybridised by PNA (lanes 1 to 3) and the ability of PNA to compete with a DNA oligonucleotide, for labelled complementary oligonucleotide (lanes 4 to 6). The intensity of the band attributable to dsDNA grows faster as the PNA concentration is raised and is replaced by a band representing the slower moving PNA-DNA hybride.

32P-end-labelled dA10 = assay: Binding to dA10, gel retardation (PAGE); details: for binding to the corresponding dA10: summary statement, illustrated by gel retardation and Tm
Protocol: as §3
The sample was cooled in ice (15 min) and analyzed by gel electrophoresis in polyacrylamide (PAGE). To 10 μl of the sample was added 2 μl 50% glycerol, 5μl TBE (TBE=90 mM Tris-borate, 1 mM EDTA, pH 8.3), and the sample was analysed by PAGE (15% acrylamide, 0.5% bisacrylamide) in TBE buffer at 4° C. A 10 μl portion of the sample was lyophilized and redissolved in 10 μl 80% formamide, 1 TBE, heated to 90° C. (5 min), and analyzed by urea/PAGE (15% acrylamide, 0.5% bisacrylamide, 7 M urea) in TBE. [^32P]-containing DNA bands were visualized by autoradiography using intensifying screens and Agfa Curix RPI X-ray films exposed at −80° C. for 2 h.
Oligonucleotides were synthesized on a Biosearch 7500 DNA synthesizer, labelled with γ[^32P]-ATP (Amersham, 5000 Ci/mmol) and polynucleotide kinase, and purified by PAGE using standard techniques (Maniatis et al. (1986): A laboratory manual, Cold Spring Harbor Laboratories).
as §4
The results in FIG. 11a show retardation of the ssDNA as it is hybridised by PNA (lanes 1 to 3) and the ability of PNA to compete with a DNA oligonucleotide, for labelled complementary oligonucleotide (lanes 4 to 6). The intensity of the band attributable to dsDNA grows faster as the PNA concentration is raised and is replaced by a band representing the slower moving PNA-DNA hybride. […]

[1] = system: A9G (5′-TCGACAAAAAGAAAAG); assay: Binding of 5′-32P-endlabeled oligonucleotide to PNA-Sepharose; details: DNA A9G; PNA on solid support (CNBr-Sepharose); 16 hr at 20° C. in TE
[2] = system: A8G2 (5′-GAAGAAGAAACTGAC); assay: as above; details: DNA A8G2; PNA on solid support (CNBr-Sepharose); 16 hr at 20° C. in TE
[3] = system: A10 (5′-GATCCAAAAAAAAAAG); type: binding
[4] = system: mix (5′-GATCACGCGTATACGCGT); assay: Binding of 5′-32P-endlabeled oligonucleotide to PNA-Sepharose; details: DNA mix; PNA on solid support (CNBr-Sepharose); 16 hr at 20° C. in TE
5′-AAA-AAA-AA = assay: Melting temperature (Tm) of hybrid with oligodeoxyribonucleotide; type: binding; details: oligo 1 (5′-AAA-AAA-AA), 10 mM phosphate, 1 mM EDTA, pH 7.2
Source text: as §1, §2
1. 5′-AAA-AAA-AA (See SEQ ID NO:12)

[5] = system: 32P-dsDNA (A10/T10) target, pT10 fragment; assay: Stability of PNA-dsDNA complexes; type: binding; details: PNA bound to A10/T10 dsDNA target; heated 10 min with competing GATCCA10G, S1 nuclease
Protocol: Complexes between PNA-Tn and ^32P-dsDNA (A10/T10) target were formed (60 min, 37° C.). The complexes were then incubated at the desired temperature in the presence of excess oligo-dA10 for 10 min, cooled to RT and probed with KMnO4.
A mixture of 200 cps ^32P-pT10 fragment (as in Example 65), 0.5 μg calf thymus DNA and 300 ng of the desired PNA (either T10-LysNH2, T8-LysNH2 or T6-LysNH2) was incubated in 100 μl 200 mM NaCl, 50 mM Na-acetate, pH 4.5, 1 mM ZnSO4 for 60 min at 37° C. A 2 μg portion of oligonucleotide GATCCA10G was added to compete with the PNA for the labelled oligonucleotide and each sample was heated for 10 min at the temperature indicated, cooled in ice for 10 min and warmed to 20° C. 50 U of S1 nuclease was added and the quantity of radio-activity liberated as single nucleotides was measured.

RNA-C = assay: Drop in A260 on mixing PNA with RNA; type: binding
Protocol: (§5) The hybrid formed between RNA-A (poly rA) and PNA-T10-Lys-NH2 melts at such high temperature that it cannot be measured (>90 C). […] Thereafter the sample is heated to 90° C. for 5 min, cooled to room temperature and kept at this temperature for 30 minutes and finally stored at 5° C. for 30 min.

RNA-U = assay: Drop in A260 on mixing PNA with RNA; type: binding
Protocol: as §5

RNA-A = assay: Drop in A260 on mixing PNA with RNA; type: binding
Protocol: as §5

RNA-G = assay: Drop in A260 on mixing PNA with RNA; type: binding
Protocol: as §5

[6] = system: A10 target in plasmid pA10KS / pT10KS, transcription by RNA polymerase; assay: Inhibition of transcription by PNA; type: biochemical
Protocol: RNA transcripts were visualized by autoradiography. The plasmid used was: Lane 1 to 5; pA10KS (the A10 target is positioned on the transcribed strand). Lane 6 to 10: pT10KS (the A10 target is positioned on the non-transcribed strand). The plasmid was treated with the following restriction enzymes prior to the experiment: Lanes 1, 4, 6 and 9: PyuII; lanes 2, 5, 7 and 10: Xha I; lanes 3 and 8: BamHI. […] If the PNA is bound to the non-transcribed strand of the plasmid, transcription is not arrested.

RNA-A (poly rA) = assay: Melting of PNA-RNA hybrid; type: binding; details: hybrid with RNA-A (poly rA); cannot be measured
Protocol: as §5

[7] = A260 before mixing 0.600, heated to 90° C. for 5 min, cooled

Substance: 5′-TTT-TTT-TTT-TTT-TTT [Oligo 13]
- Tm, Medium Salt (5′-AAA-AAA-AAA-AAA-AAA): 39.0 °C

Substance: Ac-TTT-TTT-TTT-T-Lys-NH2 [f]
- Tm, Medium Salt ((dA)10): 74 °C
- Tm, Medium Salt ((dA)5(dG)(dA)4): 62.0 °C
- Tm, Medium Salt (5′-AAA-AGA-AGA-A): 43.5 °C
- Tm, Medium Salt (5′-AAG-AAG-AAA-A): 46.5 °C

Substance: Acr-TTT-TTT-TTT-T-Lys-NH2 [e]
- migration of 32P-end-labelled dT10 in polyacrylamide gel (32P-end-labelled dT10): no retardation
- migration of 32P-end-labelled dA10 in polyacrylamide gel (32P-end-labelled dA10; native and denaturing gel conditions): retarded migration
- binding to the corresponding dA10 (32P-end-labelled dA10): very efficient binding
- Tm, Medium Salt ((dA)10): 86.0 °C
- Tm, High Salt ((dA)10): ˜90 °C
- Tm, Low Salt ((dA)10): 84.5 °C

Substance: TTC-TTC-TTT-T-Lys-NH2 [T8C2]
- % Binding of 32P-oligo to PNA-Sepharose [1]: 52%
- % Binding of 32P-oligo to PNA-Sepharose [2]: 42%
- % Binding of 32P-oligo to PNA-Sepharose [3]: 15%
- % Binding of 32P-oligo to PNA-Sepharose [4]: 14%

Substance: TTT-TTC-TTT-T-Lys-NH2
- % Binding of 32P-oligo to PNA-Sepharose [1]: 50%
- % Binding of 32P-oligo to PNA-Sepharose [2]: 45%
- Tm, Medium Salt ((dA)5(dG)(dA)4): 72.0 °C
- Tm, High Salt ((dA)5(dG)(dA)4): 72.5 °C
- Tm, Low Salt ((dA)5(dG)(dA)4): 74.5 °C
- Tm, Medium Salt (5′-AAA-AGA-AGA-A): 58.0 °C
- Tm, Medium Salt (5′-AAG-AAG-AAA-A): 57.5 °C
- % Binding of 32P-oligo to PNA-Sepharose [4]: 13%

Substance: TTT-TTT-TT-Lys-NH2 [b]
- Tm, Medium Salt (5′-AAA-AAA-AA; 140 mM NaCl): 51.5 °C
- Tm, High Salt (5′-AAA-AAA-AA; 500 mM NaCl): 50.0 °C
- Tm, Low Salt (5′-AAA-AAA-AA; no sodium chloride): 56.0 °C
- Tm of PNA/DNA complex [5]: 60 °C

Substance: TTT-TTT-TTT-T-Lys-NH2 [H-T10-LysNH2]
- A260 After Mixing (RNA-C; A260 before mixing 0.600): 0.540
- A260 After Mixing and Heating (RNA-C; [7]): 0.532
- A260 After Mixing (RNA-U; A260 before mixing 0.600): 0.538
- A260 After Mixing and Heating (RNA-U; [7]): 0.528
- A260 After Mixing (RNA-A; A260 before mixing 0.600): 0.389
- A260 After Mixing and Heating (RNA-A; [7]): 0.360
- A260 After Mixing (RNA-G; A260 before mixing 0.600): 0.514
- A260 After Mixing and Heating (RNA-G; [7]): 0.517
- % Binding of 32P-oligo to PNA-Sepharose [1]: 11%
- Tm of PNA/DNA complex [5]: > 70 °C
- transcription of RNA ([6]; PNA bound to the non-transcribed strand (pT10KS)): not arrested
- transcription of RNA ([6]; PNA bound to the transcribed strand (pA10KS)): arrested at the PNA binding site
- binding to the corresponding dA10 (32P-end-labelled dA10): very efficient binding
- % Binding of 32P-oligo to PNA-Sepharose [2]: 11%
- Tm ((dA)10; Example 55): 73 °C and 73 °C °C
- Tm ((dA)10; Example 61): 73 °C °C
- Tm, Medium Salt ((dA)10): 72.5 °C
- Tm, High Salt ((dA)10): 73.0 °C
- Tm, Low Salt ((dA)10): 73.0 °C
- Tm, Medium Salt ((dA)5(dG)(dA)4): 59.0 °C
- Tm, High Salt ((dA)5(dG)(dA)4): 61.5 °C
- Tm, Low Salt ((dA)5(dG)(dA)4): 60.0 °C
- Tm, Medium Salt (5′-AAA-AGA-AGA-A): 46.0 °C
- Tm, Medium Salt (5′-AAG-AAG-AAA-A): 47.0 °C
- % Binding of 32P-oligo to PNA-Sepharose [3]: 51%
- % Binding of 32P-oligo to PNA-Sepharose [4]: 11%
- melting temperature of hybrid (RNA-A (poly rA)): > 90 C
